Assay results as given in PubChem BioAssay AID180 (DTP/NCI, 2004).
Values joined by “and” are separate entries in the source; they are usually repeats but may differ in a detail not shown here. Identical values can stand only once.

Test system: BDF1 mice, Adenocarcinoma 755 s.c., tumor weight T/C
Experiment: NCI In Vivo Anticancer Drug Screen. Data for tumor model Adenocarcinoma 755 (subcutaneous) in B6D2F1 (BDF1) mice
Conditions: endpoint: mean tumor weight, higher = larger tumour
Procedure: The antitumor activity of compounds was measured in mice bearing transplantable tumors. Survival or tumor size were measured and the results are expressed as the measurement made in the treated group (T) divided by the measurement made in the vehicle treated control group (C). The tumor model used in this assay is Adenocarcinoma 755 (subcutaneous) in B6D2F1 (BDF1) mice

[1] = dose: 1.0 mg/kg/injection, schedule: Q01DX011 (ip), vehicle: carboxymethylcellulose (CMC)
[2] = dose: 2.0 mg/kg/injection, schedule: Q01DX011 (ip), vehicle: carboxymethylcellulose (CMC)
[3] = dose: 4.0 mg/kg/injection, schedule: Q01DX011 (ip), vehicle: carboxymethylcellulose (CMC)
[4] = dose: 2.5 mg/kg/injection, schedule: Q01DX011 (ip), vehicle: carboxymethylcellulose (CMC)
[5] = dose: 62.5 mg/kg/injection, schedule: Q01DX011 (ip), vehicle: methylcellulose (MC)
[6] = dose: 125.0 mg/kg/injection, schedule: Q01DX011 (ip), vehicle: methylcellulose (MC)
[7] = dose: 250.0 mg/kg/injection, schedule: Q01DX011 (ip), vehicle: methylcellulose (MC)

For `CN(C)[C@@H]1C(=O)C(C(=O)NCc2nc3[nH]cnc(=S)c3[nH]2)=C(O)[C@@]2(O)C(=O)C3=C(O)c4c(O)cccc4[C@@](C)(O)[C@H]3C[C@@H]12`, the T/C [1] was 64 % of control, the T/C [2] was 44 % of control and the T/C (dose: 3.0 mg/kg/injection, schedule: Q01DX011 (ip), vehicle: carboxymethylcellulose (CMC)) was 78 % of control. For the same compound, the T/C [3] was 62 % of control, the T/C (dose: 14.0 mg/kg/injection, schedule: Q01DX011 (ip), vehicle: carboxymethylcellulose (CMC)) was 1 % of control and 3 % of control and 5 % of control and the T/C (dose: 28.0 mg/kg/injection, schedule: Q01DX011 (ip), vehicle: carboxymethylcellulose (CMC)) was 1 % of control and 2 % of control. For the same compound, the T/C (dose: 56.0 mg/kg/injection, schedule: Q01DX011 (ip), vehicle: carboxymethylcellulose (CMC)) was 6 % of control.

In the case of `O=C(O)CCc1c[nH]c2ccc(N(CCCl)CCCl)cc12`, the T/C (dose: 1.2 mg/kg/injection, schedule: Q01DX011 (ip), vehicle: carboxymethylcellulose (CMC)) is reported as 90 % of control, the T/C [4] is reported as 64 % of control and the T/C (dose: 5.0 mg/kg/injection, schedule: Q01DX011 (ip), vehicle: carboxymethylcellulose (CMC)) is reported as 74 % of control.

For `C=CC(=O)NCNC(=O)CCBr`, the T/C (dose: 12.5 mg/kg/injection, schedule: Q01DX011 (ip), vehicle: carboxymethylcellulose (CMC)) was 62 % of control, the T/C (dose: 25.0 mg/kg/injection, schedule: Q01DX011 (ip), vehicle: carboxymethylcellulose (CMC)) was 34 % of control and the T/C (dose: 50.0 mg/kg/injection, schedule: Q01DX011 (ip), vehicle: carboxymethylcellulose (CMC)) was 1 % of control.

With `C=CCc1c[nH]c(=O)[nH]c1=O` the T/C (dose: 67.5 mg/kg/injection, schedule: Q01DX011 (ip), vehicle: saline) was 99 % of control, the T/C (dose: 125.0 mg/kg/injection, schedule: Q01DX011 (ip), vehicle: saline) was 78 % of control and the T/C (dose: 250.0 mg/kg/injection, schedule: Q01DX011 (ip), vehicle: saline) was 72 % of control.

With `Cn1c(=O)c2c(nc(COCc3nc4c(c(=O)n(C)c(=O)n4C)n3C)n2C)n(C)c1=O` the T/C (dose: 25.0 mg/kg/injection, schedule: Q01DX011 (ip), vehicle: methylcellulose (MC)) was 60 % of control, the T/C (dose: 75.0 mg/kg/injection, schedule: Q01DX011 (ip), vehicle: methylcellulose (MC)) was 82 % of control and the T/C (dose: 225.0 mg/kg/injection, schedule: Q01DX011 (ip), vehicle: methylcellulose (MC)) was 33 % of control.

`CCc1nc(N)nc(N)c1-c1ccc(Cl)c(Cl)c1` was tested, and the T/C (dose: 0.5 mg/kg/injection, schedule: Q01DX011 (ip), vehicle: methylcellulose (MC)) was 51 % of control, the T/C (dose: 1.0 mg/kg/injection, schedule: Q01DX011 (ip), vehicle: methylcellulose (MC)) was 62 % of control and 71 % of control and the T/C (dose: 2.0 mg/kg/injection, schedule: Q01DX011 (ip), vehicle: methylcellulose (MC)) was 52 % of control.

For `Nc1nc(N)c(N=O)c(Nc2ccc(I)cc2)n1`, the T/C (dose: 0.5 mg/kg/injection, schedule: Q01DX011 (ip), vehicle: carboxymethylcellulose (CMC)) was 70 % of control, the T/C [1] was 79 % of control and 80 % of control and the T/C [2] was 62 % of control. For the same compound, the T/C (dose: 8.0 mg/kg/injection, schedule: Q01DX011 (ip), vehicle: carboxymethylcellulose (CMC)) was 34 % of control and 54 % of control and 59 % of control, the T/C (dose: 32.0 mg/kg/injection, schedule: Q01DX011 (ip), vehicle: carboxymethylcellulose (CMC)) was 25 % of control and 28 % of control and 40 % of control and the T/C (dose: 64.0 mg/kg/injection, schedule: Q01DX011 (ip), vehicle: carboxymethylcellulose (CMC)) was 17 % of control. The T/C (dose: 128.0 mg/kg/injection, schedule: Q01DX011 (ip), vehicle: carboxymethylcellulose (CMC)) was 10 % of control.

`CC1CCN2CCC(O)C12` (centres undefined) was tested, and the T/C (dose: 7.0 mg/kg/injection, schedule: Q01DX011 (ip), vehicle: carboxymethylcellulose (CMC)) was 98 % of control.

For `O=S(=O)(O)c1cccnc1`, the T/C (dose: 19.63 mg/kg/injection, schedule: Q01DX011 (ip), vehicle: carboxymethylcellulose (CMC)) was 68 % of control, the T/C (dose: 37.36 mg/kg/injection, schedule: Q01DX011 (ip), vehicle: carboxymethylcellulose (CMC)) was 91 % of control and 101 % of control and the T/C (dose: 39.25 mg/kg/injection, schedule: Q01DX011 (ip), vehicle: carboxymethylcellulose (CMC)) was 99 % of control. For the same compound, the T/C [5] was 108 % of control, the T/C (dose: 78.5 mg/kg/injection, schedule: Q01DX011 (ip), vehicle: carboxymethylcellulose (CMC)) was 152 % of control and the T/C [6] was 76 % of control. The T/C (dose: 157.0 mg/kg/injection, schedule: Q01DX011 (ip), vehicle: carboxymethylcellulose (CMC)) was 79 % of control, the T/C [7] was 95 % of control and the T/C (dose: 298.9 mg/kg/injection, schedule: Q01DX011 (ip), vehicle: carboxymethylcellulose (CMC)) was 120 % of control.

For `COC(C(=O)C(O)C(C)O)C1Cc2cc3cc(OC4CC(OC(C)=O)C(OC5CC(O)C(OC)C(C)O5)C(C)O4)cc(O)c3c(O)c2C(=O)C1OC1CC(OC2CC(OC3CC(C)(O)C(OC(=O)C(C)C)C(C)O3)C(O)C(C)O2)C(O)C(C)O1` (centres undefined), the T/C (dose: 0.02 mg/kg/injection, schedule: Q01DX011 (ip), vehicle: carboxymethylcellulose (CMC)) was 93 % of control, the T/C (dose: 0.04 mg/kg/injection, schedule: Q01DX011 (ip), vehicle: carboxymethylcellulose (CMC)) was 93 % of control and the T/C (dose: 0.08 mg/kg/injection, schedule: Q01DX011 (ip), vehicle: carboxymethylcellulose (CMC)) was 52 % of control. For the same compound, the T/C (dose: 0.15 mg/kg/injection, schedule: Q01DX011 (ip), vehicle: saline) was 114 % of control, the T/C (dose: 0.16 mg/kg/injection, schedule: Q01DX011 (ip), vehicle: carboxymethylcellulose (CMC)) was 14 % of control and 39 % of control and the T/C (dose: 0.33 mg/kg/injection, schedule: Q01DX011 (ip), vehicle: saline) was 66 % of control. The T/C (dose: 0.66 mg/kg/injection, schedule: Q01DX011 (ip), vehicle: saline) was 54 % of control, the T/C (dose: 1.25 mg/kg/injection, schedule: Q01DX011 (ip), vehicle: saline) was 8 % of control and 11 % of control and the T/C (dose: 2.5 mg/kg/injection, schedule: Q01DX011 (ip), vehicle: saline) was 2 % of control and 3 % of control.

In the case of `C/C(=N\NC(=O)c1ccncc1)c1cccc(Br)c1`, the T/C (dose: 0.9 mg/kg/injection, schedule: Q01DX011 (ip), vehicle: carboxymethylcellulose (CMC)) is reported as 116 % of control, the T/C (dose: 3.7 mg/kg/injection, schedule: Q01DX011 (ip), vehicle: carboxymethylcellulose (CMC)) is reported as 154 % of control and the T/C (dose: 7.5 mg/kg/injection, schedule: Q01DX011 (ip), vehicle: methylcellulose (MC)) is reported as 34 % of control and 57 % of control. The T/C (dose: 15.0 mg/kg/injection, schedule: Q01DX011 (ip), vehicle: methylcellulose (MC)) was 65 % of control and 87 % of control.

For `Nc1nc([S-])c2nc[nH]c2n1.Nc1nc([S-])c2nc[nH]c2n1.Nc1nc([S-])c2nc[nH]c2n1.[Pt]`, the T/C [1] was 44 % of control, the T/C (dose: 1.3 mg/kg/injection, schedule: Q01DX011 (ip), vehicle: carboxymethylcellulose (CMC)) was 65 % of control and the T/C [2] was 19 % of control. For the same compound, the T/C [4] was 12 % of control and the T/C [3] was 2 % of control.

`ClCCN(CCCl)c1ccc(/C=C\c2ccnc3ccccc23)cc1` was tested, and the T/C (dose: 30.0 mg/kg/injection, schedule: Q01DX011 (ip), vehicle: carboxymethylcellulose (CMC)) was 65 % of control and 75 % of control, the T/C (dose: 115.0 mg/kg/injection, schedule: Q01DX011 (ip), vehicle: carboxymethylcellulose (CMC)) was 47 % of control and 69 % of control and the T/C (dose: 230.0 mg/kg/injection, schedule: Q01DX011 (ip), vehicle: carboxymethylcellulose (CMC)) was 71 % of control.

With `CO[C@@H]([CH2][Hg][S]C#N)[C@@H]([CH2][Hg][S]C#N)OC` the T/C (dose: 9.5 mg/kg/injection, schedule: Q01DX011 (ip), vehicle: carboxymethylcellulose (CMC)) was 56 % of control and the T/C (dose: 18.75 mg/kg/injection, schedule: Q01DX011 (ip), vehicle: carboxymethylcellulose (CMC)) was 57 % of control.

For `COc1cc(C=O)cc(O)c1O`, the T/C [5] was 72 % of control, the T/C [6] was 58 % of control and the T/C [7] was 40 % of control.

With `C[C@]12C=CC(=O)C=C1[C@@H](F)C[C@@H]1[C@@H]2[C@@H](O)C[C@@]2(C)[C@H]1CC[C@]2(O)C(=O)CO` the T/C (dose: 3.0 mg/kg/injection, schedule: Q01DX011 (ip), vehicle: methylcellulose (MC)) was 63 % of control and 64 % of control, the T/C (dose: 3.0 mg/kg/injection, schedule: Q01DX011 (sc), vehicle: steriod suspending solution) was 51 % of control and the T/C (dose: 6.0 mg/kg/injection, schedule: Q01DX011 (ip), vehicle: methylcellulose (MC)) was 41 % of control and 43 % of control. For the same compound, the T/C (dose: 6.0 mg/kg/injection, schedule: Q01DX011 (sc), vehicle: steriod suspending solution) was 53 % of control, the T/C (dose: 12.0 mg/kg/injection, schedule: Q01DX011 (ip), vehicle: methylcellulose (MC)) was 37 % of control and 41 % of control and the T/C (dose: 12.0 mg/kg/injection, schedule: Q01DX011 (sc), vehicle: steriod suspending solution) was 46 % of control. For the same compound, the T/C (dose: 24.0 mg/kg/injection, schedule: Q01DX011 (ip), vehicle: methylcellulose (MC)) was 30 % of control and 40 % of control, the T/C (dose: 24.0 mg/kg/injection, schedule: Q01DX011 (sc), vehicle: steriod suspending solution) was 30 % of control and the T/C (dose: 48.0 mg/kg/injection, schedule: Q01DX011 (sc), vehicle: steriod suspending solution) was 23 % of control.
